Literature values as cited in patent US7074355B2, “Process for dry granulation by agitative balling for the preparation of chemically stable, dry-flow, low compact, dust free, soluble spherical granules of phosphoroamidothioate” (United Phosphorus Ltd., priority 2003, dated 2006).

Test system: insects
Conditions: systemic and contact insecticide of moderate persistence

COP(=O)(NC(C)=O)SC (stereo not shown) [Acephate]
residual activity lasting: 10 to 15 days
